Experimental data from US6613875B1, “Cyclic peptide tube” (The Scripps Research Institute, priority 1993, dated 2003).
Square brackets hold non-standard residues; d marks the D form.

Test: Channel-mediated glucose efflux from glucose entrapped unilamellar vesicles, enzyme coupled NADPH assay
Format: biochemical
Settings: for apparent rate constant of glucose transport: 27° C.
Description: FIG. 28 illustrates a schematic illustration of channel-mediated glucose transport and the enzyme coupled assay used to monitor the transport activity with respect to the channel structure indicated in FIGS. 27A-B. Formation of a transmembrane pore structure(s) initiates glucose efflux from the liposome which can be directly monitored by measuring the rate of NADPH production. The enzymes and cofactors employed are hydrophilic and thus can not pass through the lipid membrane and are too large to penetrate the channel structure. Therefore, only the released glucose can undergo the enzymatic reaction.
FIG. 29 illustrates the ensuing glucose efflux on the addition of various amounts of the channel forming peptide of FIGS. 27A-B, viz., open circles represent 15.0×10^−6 M; closed circles represent 11.0×10^−6 M; open triangles represent 7.5×10^−6 M; closed triangles represent 5.6×10^−6 M; and open diamonds represent 3.8×10^−6 M. Efflux is expressed in terms of the amount of glucose released as a function of time (sampled at 90 sec intervals). The large unilamellar vesicles used in this study contained 200 mM D-glucose. All curves are background corrected to remove any contribution from the nonspecific glucose leakage from the liposomes.
Glucose transport activity was studied in isotonic solutions using glucose entrapped unilamellar lipid vesicles. Unilamellar vesicles, ˜150 nm in diameter, were prepared by the reverse-phase evaporation method using 1,2-dipalmitoyl-Sn-glycero-3-phosphatidylcholine (DPPC) 1-palmitoyl-2-oleoyl-Sn-glycero-3-phosphatidylcholine (POPC) 1-palmitoyl-2-oleoyl-Sn-glycero-3-phosphatidylserine (POPS), and cholesterol in the ratio 1:1:0.1:1 in a solution containing 50, 100, 150, or 200 mM D-glucose, 100 mM NaCl, and 50 mM Tris buffer pH 7.5, according to the method of F. Szoka et al. in Proc. Natl. Acad. Sci. USA (1978), vol. 75, pages 4194-4198. Liposomes were gel-filtered using Sephadex G-25 in an isotonic buffer containing 50, 100, 150, or 200 mM sucrose, 100 mM NaCl, and 50 mM Tris buffer pH 7.5. The liposome preparation was stored at 4° C. and used within 24 hours of the synthesis. The transport phenomenon was monitored spectrophotometrically at 340 nm for the production of NADPH using an enzyme coupled assay (FIG. 28), according to the method of S. C. Kinsky in Methods in Enzymology; Fleischer, S., Packer, L., Eds; Academic Press: London, 1974; vol. 32, pp 501-513. All experiments were performed on a Spectronic-3000 photodiode-array spectrophotometer using 3 ml quartz cuvettes placed in the thermojacketed multiple cell holder and held at 27° C. In a typical experiment the following solutions were sequentially placed in the cuvettes: 750 ml of buffer (300 mM NaCl, 50 mM Tris pH 7.5, 3.5 mM MgCl2, and 0.15 mM CaCl2), 500 ml of the enzyme solution (8 units.ml^−1 of hexokinase, 16 units.ml^−1 of glucose-6-phosphate dehydrogenase, 2.5 mM ATP, 1.3 mM NADP all dissolved in 200 mM NaCl, 50 mM Tris pH 7.5, 3.5 mM MgCl2, and 0.15 mM CaCl2), and 75 ml of the stock liposome solution^8 (2.6×10^−3 M in phospholipids). Total glucose content in each cuvette was determined by Triton X-100 treatment. Transport was initiated by the addition of an appropriate amount (5, 7.5, 10, 15, or 20 ml) of the peptide solution (1 mM in DMF) to the reference and the sample cuvettes (hexokinase was omitted from the reference sample). […] The production of NADPH was monitored at 340 nm for 1.5 h at 90 second time intervals. […]

Row | Substance | apparent rate constant of glucose transport (liposomes with initial glucose concentration 50 mM) | apparent rate constant of glucose transport (liposomes with initial glucose concentration 100 mM) | apparent rate constant of glucose transport (liposomes with initial glucose concentration 150 mM) | apparent rate constant of glucose transport (liposomes with initial glucose concentration 200 mM) | display any glucose transport activity under similar assay conditions (sentence reads 'neither ... nor ... display any glucose transport activity' = none)
1 | cyclo[-Gln-(D-Leu-Trp)4-D-Leu-] (cyclo(Q[dL]W[dL]W[dL]W[dL]W[dL]); SMILES CC(C)C[C@H]1NC(=O)[C@H](CCC(N)=O)NC(=O)[C@@H](CC(C)C)NC(=O)[C@H](Cc2c[nH]c3ccccc23)NC(=O)[C@@H](CC(C)C)NC(=O)[C@H](Cc2c[nH]c3ccccc23)NC(=O)[C@@H](CC(C)C)NC(=O)[C@H](Cc2c[nH]c3ccccc23)NC(=O)[C@@H](CC(C)C)NC(=O)[C@H](Cc2c[nH]c3ccccc23)NC1=O) [10-residue cyclic peptide forming 10 Å pores that transport glucose] | 0.18±0.02 mol(glucose)/mol(peptide)/min^−1 | 0.48±0.05 mol(glucose)/mol(peptide)/min^−1 | 0.74±0.1 mol(glucose)/mol(peptide)/min^−1 | 1.2±0.09 mol(glucose)/mol(peptide)/min^−1 | 
2 | cyclo[-(Trp-D-Leu)3-Gln-D-Leu-] (cyclo(W[dL]W[dL]W[dL]Q[dL]); SMILES CC(C)C[C@H]1NC(=O)[C@H](CCC(N)=O)NC(=O)[C@@H](CC(C)C)NC(=O)[C@H](Cc2c[nH]c3ccccc23)NC(=O)[C@@H](CC(C)C)NC(=O)[C@H](Cc2c[nH]c3ccccc23)NC(=O)[C@@H](CC(C)C)NC(=O)[C@H](Cc2c[nH]c3ccccc23)NC1=O) [eight residue ion channel forming cyclic peptide, approximately 7.5 Å pore] |  |  |  |  | nor
